Assay results reported in patent US10738028B2, “Spiro three-membered ring, spiro five-membered ring peptide deformylase inhibitor and use thereof in antibacteria and anti-tumor” (priority 2016, dated 2020).

Assays:
Format in all cases: cell-based
[1] = tested on: A549 lung cancer cell line; assay: CCK-8 proliferation inhibition; conditions: concentration of 30 μM
In short: (§1)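 Plating at 2000 cells/well, then incubation overnight at 37° C. Next, a range of compound concentrations for 72 hours (control 1‰ DMSO). Finally, medium decanted and CCK-8 diluted 1:10 added.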

[2] = tested on: MGC-803 gastric cancer cell line; assay: CCK-8 proliferation inhibition; conditions: concentration of 30 μM
In short: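 Using media specific to each line (1640 for MGC-803 and Jurkat, F12 for PC3, DMEM high glucose for MCF-7, each with 10% newborn bovine serum), cells at 2000/well were treated for 72 h with serially formulated compounds, then assessed with CCK-8 diluted 1:10.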

[3] = tested on: BEL-7402 liver cancer cell line; assay: CCK-8 proliferation inhibition; conditions: concentration of 30 μM, 72 hours, 30 µM
In short: as §1

[4] = tested on: HCT-116 colorectal cancer cell line; assay: CCK-8 proliferation inhibition; conditions: concentration of 30 μM, 72 hours, CCK-8
In short: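 Proliferation over 72 hours of compound treatment was measured with CCK-8 against a 1‰ DMSO control.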

[5] = tested on: Enterococcus faecium (EFM); assay: MIC, two-fold agar dilution (CLSI), clinical isolates
In short: (§2)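 Following the American Clinical and Laboratory Standards Institute procedure, agar two-fold dilution served to determine minimum inhibitory concentrations.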

[6] = tested on: methicillin-sensitive Staphylococcus aureus (MSSA); assay: as above
In short: as §2

[7] = tested on: methicillin-sensitive Staphylococcus epidermidis (MSSE); assay: as above
In short: as §2

[8] = tested on: Moraxella catarrhalis (BCA); assay: as above
In short: as §2

[9] = tested on: Enterococcus faecalis (EFA); assay: as above
In short: as §2

[10] = tested on: methicillin-resistant Staphylococcus aureus (MRSA); assay: as above
In short: as §2

[11] = tested on: methicillin-resistant Staphylococcus epidermidis (MRSE); assay: as above
In short: as §2

[12] = tested on: Escherichia coli (including ESBLs, non-ESBLs); assay: as above
In short: as §2

[13] = tested on: Streptococcus pneoumoniae (SPN); assay: as above
In short: as §2

**Q.** Which inhibition at 30 µM ([1]; Homo sapiens, A549, 72 h) does the source give for O=C(C[C@@H](CC1CCCC1)C(=O)N1CC2(CC2)C[C@H]1C(=O)Nc1ccncn1)NO [Example 63] here?
**A.** The inhibition at 30 µM was greater than 50%.

**Q.** What about the “Inhibition of proliferation, Lung cancer A549” value ([1]; 72 hours, 30 µM) of the same compound?
**A.** The value was 63%.

**Q.** And the inhibition at 30 µM ([2]; Homo sapiens, MGC-803, 72 h)?
**A.** Its inhibition at 30 µM is greater than 50%.

**Q.** And the “Inhibition of proliferation, Gastric cancer MGC-803” value ([2]; 72 hours, 30 µM)?
**A.** Its value is 58%.

**Q.** And the “Inhibition of proliferation, Liver cancer BEL-7402” value [3]?
**A.** The value was 74%.

**Q.** And the inhibition at 30 µM ([4]; Homo sapiens, HCT-116, 72 h, read-out: HCT116 inhibition rate/%)?
**A.** Its inhibition at 30 µM is greater than 50%.

**Q.** And the HCT116 inhibition rate/% ([4]; 30 µM)?
**A.** The HCT116 inhibition rate/% was 68%.

**Q.** What about the Anti-bacterial activity (MIC), strain EFM 15-1 ([5]; clinical isolate EFM 15-1) of the same compound?
**A.** The Anti-bacterial activity (MIC), strain EFM 15-1 was greater than 32 µg/mL.

**Q.** And the Anti-bacterial activity (MIC), strain EFM 15-2 ([5]; clinical isolate EFM 15-2)?
**A.** The Anti-bacterial activity (MIC), strain EFM 15-2 was greater than 32 µg/mL.

**Q.** What about the Anti-bacterial activity (MIC), strain EFM 15-3 ([5]; clinical isolate EFM 15-3) of the same compound?
**A.** Its Anti-bacterial activity (MIC), strain EFM 15-3 is greater than 32 µg/mL.

**Q.** What about the Anti-bacterial activity (MIC), strain EFM 15-4 ([5]; clinical isolate EFM 15-4) of the same compound?
**A.** The Anti-bacterial activity (MIC), strain EFM 15-4 was 0.5 µg/mL.

**Q.** And the Anti-bacterial activity (MIC), strain EFM 15-5 ([5]; clinical isolate EFM 15-5)?
**A.** The Anti-bacterial activity (MIC), strain EFM 15-5 was 0.25 µg/mL.

**Q.** What about the Anti-bacterial activity (MIC), strain EFM 15-6 ([5]; clinical isolate EFM 15-6) of the same compound?
**A.** The Anti-bacterial activity (MIC), strain EFM 15-6 was 0.25 µg/mL.

**Q.** And the Anti-bacterial activity (MIC), strain MSSA 15-3 ([6]; clinical isolate MSSA 15-3)?
**A.** Its Anti-bacterial activity (MIC), strain MSSA 15-3 is 0.25 µg/mL.

**Q.** And the Anti-bacterial activity (MIC), strain MSSA 15-4 ([6]; clinical isolate MSSA 15-4)?
**A.** Its Anti-bacterial activity (MIC), strain MSSA 15-4 is 0.125 µg/mL.

**Q.** And the Anti-bacterial activity (MIC), strain MSSA 15-5 ([6]; clinical isolate MSSA 15-5)?
**A.** Its Anti-bacterial activity (MIC), strain MSSA 15-5 is 0.125 µg/mL.

**Q.** What about the Anti-bacterial activity (MIC), strain MSSA 15-6 ([6]; clinical isolate MSSA 15-6) of the same compound?
**A.** The Anti-bacterial activity (MIC), strain MSSA 15-6 was 16 µg/mL.

**Q.** And the Anti-bacterial activity (MIC), strain MSSE 15-3 ([7]; clinical isolate MSSE 15-3)?
**A.** The Anti-bacterial activity (MIC), strain MSSE 15-3 was 0.125 µg/mL.

**Q.** What about the Anti-bacterial activity (MIC), strain MSSE 15-4 ([7]; clinical isolate MSSE 15-4) of the same compound?
**A.** The Anti-bacterial activity (MIC), strain MSSE 15-4 was 0.25 µg/mL.

**Q.** And the Anti-bacterial activity (MIC), strain MSSE 15-5 ([7]; clinical isolate MSSE 15-5)?
**A.** Its Anti-bacterial activity (MIC), strain MSSE 15-5 is 0.25 µg/mL.

**Q.** What about the Anti-bacterial activity (MIC), strain MSSE 15-6 ([7]; clinical isolate MSSE 15-6) of the same compound?
**A.** The Anti-bacterial activity (MIC), strain MSSE 15-6 was 0.125 µg/mL.

**Q.** What about the Anti-bacterial activity (MIC), strain BCA 14-1 ([8]; clinical isolate BCA 14-1) of the same compound?
**A.** The Anti-bacterial activity (MIC), strain BCA 14-1 was 2 µg/mL.

**Q.** And the Anti-bacterial activity (MIC), strain BCA 14-4 ([8]; clinical isolate BCA 14-4)?
**A.** Its Anti-bacterial activity (MIC), strain BCA 14-4 is 2 µg/mL.

**Q.** What about the Anti-bacterial activity (MIC), strain BCA 14-5 ([8]; clinical isolate BCA 14-5) of the same compound?
**A.** Its Anti-bacterial activity (MIC), strain BCA 14-5 is 0.25 µg/mL.

**Q.** And the Anti-bacterial activity (MIC), strain BCA 14-6 ([8]; clinical isolate BCA 14-6)?
**A.** Its Anti-bacterial activity (MIC), strain BCA 14-6 is 0.25 µg/mL.

**Q.** And the Anti-bacterial activity (MIC), strain BCA 14-7 ([8]; clinical isolate BCA 14-7)?
**A.** Its Anti-bacterial activity (MIC), strain BCA 14-7 is 4 µg/mL.

**Q.** And the Anti-bacterial activity (MIC), strain BCA 14-8 ([8]; clinical isolate BCA 14-8)?
**A.** The Anti-bacterial activity (MIC), strain BCA 14-8 was 0.5 µg/mL.

**Q.** What about the Anti-bacterial activity (MIC), strain BCA 14-10 ([8]; clinical isolate BCA 14-10) of the same compound?
**A.** The Anti-bacterial activity (MIC), strain BCA 14-10 was 0.5 µg/mL.

**Q.** And the Anti-bacterial activity (MIC), strain EFA 15-1 ([9]; clinical isolate EFA 15-1)?
**A.** The Anti-bacterial activity (MIC), strain EFA 15-1 was greater than 32 µg/mL.

**Q.** What about the Anti-bacterial activity (MIC), strain EFA 15-2 ([9]; clinical isolate EFA 15-2) of the same compound?
**A.** The Anti-bacterial activity (MIC), strain EFA 15-2 was greater than 32 µg/mL.

**Q.** What about the Anti-bacterial activity (MIC), strain EFA 15-3 ([9]; clinical isolate EFA 15-3) of the same compound?
**A.** The Anti-bacterial activity (MIC), strain EFA 15-3 was greater than 32 µg/mL.

**Q.** What about the Anti-bacterial activity (MIC), strain EFA 15-4 ([9]; clinical isolate EFA 15-4) of the same compound?
**A.** Its Anti-bacterial activity (MIC), strain EFA 15-4 is greater than 32 µg/mL.

**Q.** And the Anti-bacterial activity (MIC), strain EFA 15-5 ([9]; clinical isolate EFA 15-5)?
**A.** The Anti-bacterial activity (MIC), strain EFA 15-5 was greater than 32 µg/mL.

**Q.** What about the Anti-bacterial activity (MIC), strain EFA 15-6 ([9]; clinical isolate EFA 15-6) of the same compound?
**A.** Its Anti-bacterial activity (MIC), strain EFA 15-6 is greater than 32 µg/mL.

**Q.** What about the Anti-bacterial activity (MIC), strain EFA 15-9 ([9]; clinical isolate EFA 15-9) of the same compound?
**A.** The Anti-bacterial activity (MIC), strain EFA 15-9 was 4 µg/mL.

**Q.** What about the Anti-bacterial activity (MIC), strain MRSA 15-1 ([10]; clinical isolate MRSA 15-1) of the same compound?
**A.** The Anti-bacterial activity (MIC), strain MRSA 15-1 was 0.125 µg/mL.

**Q.** What about the Anti-bacterial activity (MIC), strain MRSA 15-2 ([10]; clinical isolate MRSA 15-2) of the same compound?
**A.** Its Anti-bacterial activity (MIC), strain MRSA 15-2 is 0.25 µg/mL.

**Q.** What about the Anti-bacterial activity (MIC), strain MRSA 15-3 ([10]; clinical isolate MRSA 15-3) of the same compound?
**A.** The Anti-bacterial activity (MIC), strain MRSA 15-3 was 0.125 µg/mL.

**Q.** What about the Anti-bacterial activity (MIC), strain MRSA 15-4 ([10]; clinical isolate MRSA 15-4) of the same compound?
**A.** Its Anti-bacterial activity (MIC), strain MRSA 15-4 is 0.25 µg/mL.

**Q.** And the Anti-bacterial activity (MIC), strain MRSE 15-1 ([11]; clinical isolate MRSE 15-1)?
**A.** Its Anti-bacterial activity (MIC), strain MRSE 15-1 is 0.25 µg/mL.

**Q.** What about the Anti-bacterial activity (MIC), strain MRSE 15-2 ([11]; clinical isolate MRSE 15-2) of the same compound?
**A.** Its Anti-bacterial activity (MIC), strain MRSE 15-2 is 0.25 µg/mL.

**Q.** What about the Anti-bacterial activity (MIC), strain MRSE 15-3 ([11]; clinical isolate MRSE 15-3) of the same compound?
**A.** Its Anti-bacterial activity (MIC), strain MRSE 15-3 is 0.25 µg/mL.

**Q.** What about the Anti-bacterial activity (MIC), strain MRSE 15-7 ([11]; clinical isolate MRSE 15-7) of the same compound?
**A.** Its Anti-bacterial activity (MIC), strain MRSE 15-7 is 0.25 µg/mL.

**Q.** And the Anti-bacterial activity (MIC), strain ECO+ 15-1 ([12]; clinical isolate ECO+ 15-1)?
**A.** The Anti-bacterial activity (MIC), strain ECO+ 15-1 was 16 µg/mL.

**Q.** What about the Anti-bacterial activity (MIC), strain ECO+ 15-2 ([12]; clinical isolate ECO+ 15-2) of the same compound?
**A.** The Anti-bacterial activity (MIC), strain ECO+ 15-2 was 32 µg/mL.

**Q.** What about the Anti-bacterial activity (MIC), strain ECO+ 15-3 ([12]; clinical isolate ECO+ 15-3) of the same compound?
**A.** Its Anti-bacterial activity (MIC), strain ECO+ 15-3 is 16 µg/mL.

**Q.** What about the Anti-bacterial activity (MIC), strain ECO+ 15-4 ([12]; clinical isolate ECO+ 15-4) of the same compound?
**A.** The Anti-bacterial activity (MIC), strain ECO+ 15-4 was 16 µg/mL.

**Q.** And the Anti-bacterial activity (MIC), strain ECO− 15-1 ([12]; clinical isolate ECO− 15-1)?
**A.** The Anti-bacterial activity (MIC), strain ECO− 15-1 was 16 µg/mL.

**Q.** What about the Anti-bacterial activity (MIC), strain ECO− 15-2 ([12]; clinical isolate ECO− 15-2) of the same compound?
**A.** Its Anti-bacterial activity (MIC), strain ECO− 15-2 is 16 µg/mL.

**Q.** What about the Anti-bacterial activity (MIC), strain ECO− 15-3 ([12]; clinical isolate ECO− 15-3) of the same compound?
**A.** The Anti-bacterial activity (MIC), strain ECO− 15-3 was 32 µg/mL.

**Q.** What about the Anti-bacterial activity (MIC), strain ECO− 15-4 ([12]; clinical isolate ECO− 15-4) of the same compound?
**A.** Its Anti-bacterial activity (MIC), strain ECO− 15-4 is 16 µg/mL.

**Q.** And the Anti-bacterial activity (MIC), strain SPN 16-2 ([13]; clinical isolate SPN 16-2)?
**A.** The Anti-bacterial activity (MIC), strain SPN 16-2 was 0.5 µg/mL.

**Q.** What about the Anti-bacterial activity (MIC), strain SPN 16-4 ([13]; clinical isolate SPN 16-4) of the same compound?
**A.** The Anti-bacterial activity (MIC), strain SPN 16-4 was 0.5 µg/mL.
